“Also recorded” adds a separate entry of the source.
Key:
[1] = test system: Angelman syndrome (AS) mice; assay: Hindlimb Clasping test in AS mice; assay type: in vivo, mouse
Description: Animal handling and experimental use strictly followed NIH guidelines and protocols approved by the local Institutional Animal Care and Use Committee (IACUC) of Brown University. In all experiments, Mice were age and gender-matched. Multiple liters were used for all experiments. Weaned mice, housed in groups of two to four per cage, were maintained on a 12-h light/dark cycle with food and water ad libitum.
(§1) ESRβ agonist AC-186 treatment in vivo. 10 mg/kg AC-186 was daily IP delivered after dissolved at high concentration (30 mg/ml) in DMSO and further diluted in 20% PEG300. Vehicle groups received the same volume and concentration of diluted DMSO in 20% PEG300. Treatment started at P13 and continued until mice were sacrificed at P42.
The Hindlimb Clasping test, which was administered as delineated in a prior study, Guyenet et al., 2010 (A simple composite phenotype scoring system for evaluating 10 mouse models of cerebellar ataxia. J Vis Exp.), is a neurological evaluation that involves the temporary suspension of mice to observe their hindlimb reflexes, a reliable indicator of central nervous system pathology. This method involves a 10-second observation period during which the mice's hindlimb positions are closely monitored and scored. […]

[2] = test system: Angelman syndrome (AS) mice; assay: Immunofluorescence histopathology of brain sections after treatment (oligodendroglia, myelination, ESRβ, UBE3A); assay type: in vivo, mouse
Description: For immunofluorescence with brain tissue sections, mice were sacrificed under deep anesthesia using Xylazine (10 mg/kg body weight) and Ketamine (100 mg/kg body weight) and perfused through the left cardiac ventricle with ice-cold phosphate-buffered saline (PBS) followed by 4% paraformaldehyde (PFA) in PBS. Whole brains were removed and post-fixed in 4% PFA overnight at 4° C. followed by sequential immersion in 15% and 30% sucrose for cryoprotection. The brain was then dissected and 25 μm coronal sections were prepared with a Cryostat Leica. Sections collected on the charged microscope slides (Globe Scientific #1354W) were processed for immunohistochemical staining as follows. In brief, tissue sections were blocked for 1 hour at room temperature (RT) in 5% goat/donkey serum (G/DS) with 0.3% Triton-X100 in 0.1 M phosphate buffer (0.3% PBST). After blocking, tissue sections were incubated in primary antibody diluted in blocking solution overnight at 4° C. The following day, sections were briefly washed 3 times for 5 min each at RT in PBS followed by incubation with secondary antibodies diluted in blocking solution for 2 hours at RT. Sections were then briefly washed 3 times for 5 min each at RT in PBS and mounted using EMS Shield Mount with Dabco (Electron Microscopy Sciences, #17985-200) mounting media with 4′,6-diamidino-2-phenylindole (DAPI) (Vector Laboratories, #H-1200) to stain cell nuclei.
For the purpose of imaging brain sections, we utilized both the BioTek Lionheart FX Automated Microscope and the Zeiss LSM 880 confocal laser-scanning microscope. The subsequent image analysis and quantification were conducted using NIH ImageJ software, employing the particle and intensity analysis macro for detailed examination. Channels were separated, and images from various experimental groups were thresholded uniformly to identify individual cells. In each brain, 20-30 cells were outlined for analysis. To determine the extent of colocalization, we applied the Zeiss ZEN Microscopy Software's colocalization coefficient analysis tool, which allowed for precise measurement of overlapping signals within the selected cells.
To assess the levels of UBE3A protein within oligodendroglial cells, dual immunofluorescent staining was conducted. This involved the use of a UBE3A antibody sourced from Santa Cruz Biotechnology (sc-10294) and an Olig2 antibody provided by Aves Labs (#OLIG2-0020). The corresponding secondary antibodies were tagged with Alexa 647 and Alexa 488 fluorophores. These procedures were applied to coronal brain sections harvested from postnatal days 7-10, 30, and 42 from both control and Angelman Syndrome (AS) mice. We utilized a 20× objective on a GENS microscope to capture confocal images of UBE3A and Olig2 expression. Subsequent analysis was performed using NIH ImageJ software, where fluorescence intensities, denoted in arbitrary units (a.u.), were measured to determine the relative quantities of UBE3A protein. The quantification process involved delineating areas of interest around Olig2-positive cells. Quantitative analysis of ESR2 and MBP proteins was carried out using a similar method.
as §1

[3] = corpus callosum, AS mice vs AS saline
[4] = corpus callosum, AS mice vs AS vehicle
[5] = cortex, hippocampus, and fimbria, AS mice vs AS saline

**Q.** Which results are given for Oc1ccc(C2(c3ccccc3F)CCC(F)(F)CC2)cc1 [AC-186]?
**A.** Hindlimb clasping score ([1]; AS mice, 10 mg/kg daily IP from P13-14, vs AS vehicle, 10 mg/kg): significantly alleviated neurological symptoms; also recorded: decreased; Hindlimb clasping score ([1]; wildtype mice, 10 mg/kg daily IP): without affecting wildtype mice; UBE3A intensity ([2]; AS mice vs AS saline): did not modify; also recorded: comparable; oligodendrocyte populations and myelination ([2]; AS mouse brains): notably restored; ESRβ intensity in Olig2-positive and O4-positive cells [2, 3]: slightly increased; also recorded: increased; O4-positive cells/mm^2 [2, 3]: increased; Olig2-positive cells/mm^2 [2, 3]: increased; OPC density (PDGFRa-positive cells per square millimeter) [2, 4]: increased; proliferating OPCs (Ki67 and PDGFRa dual positive, proportion of total OPCs) [2, 4]: increased; MBP intensity [2, 5]: increased; O4-positive cell density [2, 5]: increased; Olig2-positive cell density [2, 5]: increased; oligodendrocyte populations and myelination ([2]; wildtype mice): no impact
